Experimental data: PMC2898832, “Active site plasticity revealed from the structure of the enterobacterial N-ribohydrolase RihA bound to a competitive inhibitor” (2010)

Biological target: T1, RihA (Escherichia coli, UniProt P41409)
T1 construct: full-length rihA (936 bp) from E. coli K12 derivative DH5α; N-terminal His-tag removed with thrombin; tetramer
Experiment: X-ray co-crystal structure at […] Å; KI from competitive inhibition of uridine hydrolysis by purified enzyme
Format: biochemical

T1 sequence (P41409 whole entry): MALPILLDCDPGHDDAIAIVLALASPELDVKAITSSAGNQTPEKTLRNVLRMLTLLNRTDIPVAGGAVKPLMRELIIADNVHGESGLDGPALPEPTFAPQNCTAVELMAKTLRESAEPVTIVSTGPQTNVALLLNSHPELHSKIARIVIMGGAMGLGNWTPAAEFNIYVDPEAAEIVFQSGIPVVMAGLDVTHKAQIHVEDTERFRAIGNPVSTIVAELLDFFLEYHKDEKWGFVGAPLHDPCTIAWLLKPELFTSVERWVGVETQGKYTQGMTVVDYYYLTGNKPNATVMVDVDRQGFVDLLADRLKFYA

SMILES: Nc1ccc([C@@H]2N[C@H](CO)[C@@H](O)[C@H]2O)cc1N [DAPIR]
- Ki: 85 ± 7 µM
